Here are results for 14 compounds from patent US20260091026A1, “METHODS OF TREATING INFLAMMATORY DISEASES” (INTERLINE THERAPEUTICS, INC., priority 2023, published 2026).

The target in one experiment is T1, RIPK2 (KD)/XIAP (BIR2) (Homo sapiens, UniProt O43353).
T1 construct: made in house; host or cells: baculovirus-infected Sf9 cells
Nature of the experiment: RIPK2-XIAP binding competition PPI assay (TR-FRET). The following applies: for Emax / PPI Amax: 50 nM of GSK583 = -100% activity; for Emax: read-out: PPI Amax; for pIC50: GST-RIPK2 / His-XIAP (BIR2)-avi, 120 min at 23° C. The text has this: The ability of selected compounds of Formula (I) to inhibit the binding of an His-XIAP (BIR2)-avi fusion protein to a GST-RIPK2 fusion protein was quantified employing the TR-FRET-based competition assay as described in the following paragraphs.
Recombinant fusion protein of N-terminal Glutathione-S-Transferase (GST) and a fragment of human RIPK2 (amino acids 1-310 of accession number 043353), expressed in baculovirus infected Sf9 cells, purified via glutathione affinity chromatography, was used as GST-RIPK2 fusion protein. Recombinant fusion protein of N-terminal 6xHistidine (His), a fragment of human XIAP (amino acids 152-231 of accession number P98170), and C-terminal avi tag, expressed in baculovirus infected Sf9 cells, purified via Nickel NTA affinity chromatography, was used as the His-XIAP (BIR2)-avi fusion protein.
For the assay, a working solution of 1 nM GST-RIPK2, 25 nM His-XIAP (BIR2)-avi, 6 nM Anti-His-XL665 […] (Revvity Catalogue No. 61HISXLB), and 0.5 nM Anti-GST-Tb(Revvity Catalogue No. 61GSTTLB) in 25 mM Tris-HCl 7.5, 0.5 mM ethylene glycol-bis(2-aminoethylether)-N,N,N′,N′-tetraacetic acid (EGTA), 10 mM magnesium chloride (MgCl2), 2.5 mM dithiothreitol (DTT), 0.01% (w/v) bovine serum albumin (BSA), 0.005% (w/v) Pluronic F-127 (Sigma), 0.5 mM sodium ortho-vanadate, 5 mM-Glycerophosphate disodium salt hydrate (BGP) was prepared. 50 nL of a 100-fold concentrated solution of each test compound in DMSO was dispensed via acoustic dispensing into a white low volume 384-well microtiter plate (Perkin Elmer Catalogue No. 6008280). Subsequently, 5 μL of the assay working solution were added.
The resulting mixture was incubated 120 min at 23° C. Subsequently, the amount of complex formed by the GST-RIPK2, XIAP (BIR2)-avi, Anti-His-XL665, and Anti-GST-Tb was evaluated by measurement of the resonance energy transfer from the Tb-cryptate to the XL665. Therefore, the fluorescence emissions at 520 nm and 665 nm after excitation at 337 nm were measured in a TR-FRET reader, e.g. a Pherastar FS(BMG Labtechnologies, Offenburg, Germany) or an Envision (PerkinElmer). The ratio of the emissions at 665 nm and at 520 nm was taken as the measure of the amount of the complex. The data were normalized (assay reaction without inhibitor=0% activity, 50 nM of GSK583=−100% activity).

Experiment [1] relates to THP1-Dual cells, NF-κB pathway (SEAP). Put plainly: THP-1 Dual cell SEAP assay (L18-MDP stimulated). It counts as cell-based. To be noted: 10 ng/mL L18-MDP, 20-24 h, SEAP readout, read-out: IFNγ THP1 IC50. As to the method: THP1-Dual™ cells (InvivoGen Cat #thpd-nfis) allow simultaneous assessment of the NF-κB pathway, by monitoring the activity of secreted embryonic alkaline phosphatase (SEAP) as well as the IRF pathway, by assessing the activity of a secreted luciferase (Lucia). Cells were cultured according to manufacturers' recommendations. For the assay, cell concentration was adjusted to 7.14×10^5 cells/mL in assay media (RPMI 1640, 2 mM L-Glutamine, 25 mM HEPES, 10% fetal bovine serum (heat-inactivated for 30 min at 56° C.), Pen-Strep (100 U/mL)) and 35 μL of cell suspension (˜25,000 cells) per well were added to a flat bottom 384-well plate (white opaque). Plate was centrifuged at 300 g for 2 min, compounds were added in serial dilution series according to the plate layout (volumes ˜500 nL-0.0152 nL) and plate was incubated at 37° C. in 5% CO2 for 30 min. Using assay media, a L18-MDP stock solution, that results in a final concentration of 10 ng/mL L18-MDP in each well when adding 15 μL to each well, was prepared. 15 μL of L18-MDP stock solution was added to each well, while 15 μL of assay media was added to the negative control wells. Plates were subsequently incubated at 37° C. in 5% CO2 overnight (20-24 h).
For the SEAP assay: without disturbing the cells at the bottom of the well, 15 μL supernatant was transferred to a clear 384-well flat bottom plate and 35 μL QUANTI-Blue Solution per well was added. Following a 2 h incubation at 37° C., the optical density (OD) was measured at 620-655 nm using a microplate reader (PheraStar FS microplate reader with protocol for OD 620-655 nm).
Values of media-only wells were subtracted and % inhibition for each compound concentration relative to the DMSO/L18-MDP-treated controls was calculated. Inhibition values+/−SD were fitted by non-linear regression using Prism software (GraphPad PRISM Software) to calculate IC50 values.

pIC50: −log10 of the molar value. Like-named read-outs stand apart in the source and are kept apart here.

T1 sequence (O43353 1-310): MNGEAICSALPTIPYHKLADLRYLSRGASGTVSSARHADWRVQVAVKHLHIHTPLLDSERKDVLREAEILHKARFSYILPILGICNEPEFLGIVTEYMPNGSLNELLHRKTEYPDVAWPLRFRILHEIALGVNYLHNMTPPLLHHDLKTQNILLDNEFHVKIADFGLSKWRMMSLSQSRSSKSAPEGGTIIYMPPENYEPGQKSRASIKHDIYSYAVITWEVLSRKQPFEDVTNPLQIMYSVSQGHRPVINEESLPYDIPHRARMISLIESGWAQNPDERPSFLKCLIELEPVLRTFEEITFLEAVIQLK

As usually defined, the pIC50 is the negative decadic logarithm of the IC50, by convention in mol/L. Take `COc1cc2ncc(-c3cc(C(=O)N[C@@H]4C[C@@H]4c4ccccc4)n(C)n3)n2cc1S(=O)(=O)C(C)(C)C` (single isomer, unassigned) [Example 30, cis-(1S,2S) or (1R,2R) 3-(6-(tert-butylsulfonyl)-7-methoxyimidazo[1,2-a]pyridin-3-yl)-1-methyl-N-(2-phenylcyclopropyl)-1H-pyrazole-5-carboxamide]: at RIPK2 (KD)/XIAP (BIR2), the Emax lay in the range of 30 to 55% and the pIC50 was less than 6.00. Moreover, the pIC50 in experiment [1] (Homo sapiens) was less than 5.60.

Take `COc1cc2ncc(-c3cc(C(=O)N[C@@H]4C[C@@H]4c4ccccc4)n(C)n3)n2cc1S(=O)(=O)C(C)(C)C` (single isomer, unassigned) [Example 31, cis-(1R,2R) or (1S,2S) 3-(6-(tert-butylsulfonyl)-7-methoxyimidazo[1,2-a]pyridin-3-yl)-1-methyl-N-(2-phenylcyclopropyl)-1H-pyrazole-5-carboxamide]: on RIPK2 (KD)/XIAP (BIR2), the “PPI Amax” value is “D (Amax of ≤30%)” and the pIC50 is less than 6.00. Besides, the pIC50 in experiment [1] is less than 5.60.

With `COc1cc2ncc(-c3cc(C(=O)N[C@@H]4C[C@H]4c4ccccc4)n(C)n3)n2cc1S(=O)(=O)C(C)(C)C` (single isomer, unassigned) [Example 33, trans-(1R,2S) or (1S,2R) 3-(6-(tert-butylsulfonyl)-7-methoxyimidazo[1,2-a]pyridin-3-yl)-1-methyl-N-(2-phenylcyclopropyl)-1H-pyrazole-5-carboxamide], on RIPK2 (KD)/XIAP (BIR2), the Emax was not below 80% and the pIC50 was 6.00 to 7.00. The pIC50 in experiment [1] (Homo sapiens) is less than 5.60.

With `COc1cc2ncc(-c3cc(C(=O)N[C@@H]4C[C@H]4c4ccccc4)n(C)n3)n2cc1S(=O)(=O)C(C)(C)C` (single isomer, unassigned) [Example 34, trans-(1S,2R) or (1R,2S) 3-(6-(tert-butylsulfonyl)-7-methoxyimidazo[1,2-a]pyridin-3-yl)-1-methyl-N-(2-phenylcyclopropyl)-1H-pyrazole-5-carboxamide], on RIPK2 (KD)/XIAP (BIR2), the “PPI Amax” value was “A (Amax of ≥80%)” and the pIC50 was less than 6.00. Moreover, the pIC50 in experiment [1] was less than 5.60.

`COc1cc2ncc(-c3cc(C(=O)Nc4ccccc4)n(C)n3)n2cc1S(=O)(=O)C(C)(C)C` [Example 7, 3-(6-(tert-butylsulfonyl)-7-methoxyimidazo[1,2-a]pyridin-3-yl)-1-methyl-N-phenyl-1H-pyrazole-5-carboxamide]: at RIPK2 (KD)/XIAP (BIR2), the Emax is not below 80% and the pIC50 was less than 6.00. In addition, in experiment [1] (Homo sapiens), the pIC50 is less than 5.60.

As for `COc1cc2ncc(-c3cc(C(=O)N[C@@H](C)c4ccccc4)n(C)n3)n2cc1S(=O)(=O)C(C)(C)C` [Example 8, (S)-3-(6-(tert-butylsulfonyl)-7-methoxyimidazo[1,2-a]pyridin-3-yl)-1-methyl-N-(1-phenylethyl)-1H-pyrazole-5-carboxamide], the Emax on RIPK2 (KD)/XIAP (BIR2) is not below 80%. Further, the pIC50 on RIPK2 (KD)/XIAP (BIR2) was less than 6.00; in experiment [1] (Homo sapiens), less than 5.60.

`COc1cc2ncc(-c3cc(C(=O)N[C@H](C)c4ccccc4)n(C)n3)n2cc1S(=O)(=O)C(C)(C)C` [Example 9, (R)-3-(6-(tert-butylsulfonyl)-7-methoxyimidazo[1,2-a]pyridin-3-yl)-1-methyl-N-(1-phenylethyl)-1H-pyrazole-5-carboxamide]: at RIPK2 (KD)/XIAP (BIR2), the Emax was not below 80% and the pIC50 is 7.00 to 8.00. Besides, the pIC50 in experiment [1] (Homo sapiens) is more than 7.00.

In the case of `COc1cc2ncc(-c3cc(C(=O)N[C@H](C)c4ccccc4F)n(C)n3)n2cc1S(=O)(=O)C(C)(C)C` [Example 10, (R)-3-(6-(tert-butylsulfonyl)-7-methoxyimidazo[1,2-a]pyridin-3-yl)-N-(1-(2-fluorophenyl)ethyl)-1-methyl-1H-pyrazole-5-carboxamide], on RIPK2 (KD)/XIAP (BIR2), the Emax is not below 80% and the pIC50 is 7.00 to 8.00. In addition, the pIC50 in experiment [1] (Homo sapiens) is 6.30 to 7.00.

For the compound `COc1cc2ncc(-c3cc(C(=O)N[C@H](CO)c4ccccc4)n(C)n3)n2cc1S(=O)(=O)C(C)(C)C` [Example 11, (S)-3-(6-(tert-butylsulfonyl)-7-methoxyimidazo[1,2-a]pyridin-3-yl)-N-(2-hydroxy-1-phenylethyl)-1-methyl-1H-pyrazole-5-carboxamide], the Emax on RIPK2 (KD)/XIAP (BIR2) is not above 30%. In addition, the pIC50 was less than 6.00 at RIPK2 (KD)/XIAP (BIR2) and less than 5.60 in experiment [1] (Homo sapiens).

As to `COc1cc2ncc(-c3cc(C(=O)N[C@H](C)c4ccc(F)cc4)n(C)n3)n2cc1S(=O)(=O)C(C)(C)C` [Example 12, (R)-3-(6-(tert-butylsulfonyl)-7-methoxyimidazo[1,2-a]pyridin-3-yl)-N-(1-(4-fluorophenyl)ethyl)-1-methyl-1H-pyrazole-5-carboxamide], at RIPK2 (KD)/XIAP (BIR2), the Emax was not below 80%. The figures for the pIC50 (on RIPK2 (KD)/XIAP (BIR2); in experiment [1] (Homo sapiens)) were 6.00 to 7.00 and 5.60 to 6.30, respectively.

Regarding `COc1cc2ncc(-c3cc(C(=O)N[C@H](C)c4cccc(F)c4)n(C)n3)n2cc1S(=O)(=O)C(C)(C)C` [Example 13, (R)-3-(6-(tert-butylsulfonyl)-7-methoxyimidazo[1,2-a]pyridin-3-yl)-N-(1-(3-fluorophenyl)ethyl)-1-methyl-1H-pyrazole-5-carboxamide], at RIPK2 (KD)/XIAP (BIR2), the Emax is not below 80% and the pIC50 was 6.00 to 7.00. For the same compound, the pIC50 in experiment [1] (Homo sapiens) is less than 5.60.

For the compound `COc1cc2ncc(-c3cc(C(=O)NCc4n[nH]c5ccccc45)n(C)n3)n2cc1S(=O)(=O)C(C)(C)C` [Example 14, N-((1H-indazol-3-yl)methyl)-3-(6-(tert-butylsulfonyl)-7-methoxyimidazo[1,2-a]pyridin-3-yl)-1-methyl-1H-pyrazole-5-carboxamide], at RIPK2 (KD)/XIAP (BIR2), the Emax is not below 80% and the pIC50 is more than 8.00. Besides, the pIC50 in experiment [1] (Homo sapiens) was 6.30 to 7.00.

On to `COc1cc2ncc(-c3cc(C(=O)NCc4nn(C)c5ccccc45)n(C)n3)n2cc1S(=O)(=O)C(C)(C)C` [Example 15, 3-(6-(tert-butylsulfonyl)-7-methoxyimidazo[1,2-a]pyridin-3-yl)-1-methyl-N-((1-methyl-1H-indazol-3-yl)methyl)-1H-pyrazole-5-carboxamide], for which, at RIPK2 (KD)/XIAP (BIR2), the Emax is 55 to 80% and the pIC50 is 6.00 to 7.00. The pIC50 in experiment [1] (Homo sapiens) was less than 5.60.

For the compound `COc1cc2ncc(-c3cc(C(=O)NCc4c5ccccc5nn4C)n(C)n3)n2cc1S(=O)(=O)C(C)(C)C` [Example 16, 3-(6-(tert-butylsulfonyl)-7-methoxyimidazo[1,2-a]pyridin-3-yl)-1-methyl-N-((2-methyl-2H-indazol-3-yl)methyl)-1H-pyrazole-5-carboxamide], the Emax at RIPK2 (KD)/XIAP (BIR2) is 55 to 80%. Further, the pIC50 at RIPK2 (KD)/XIAP (BIR2) was less than 6.00; in experiment [1] (Homo sapiens), less than 5.60.
